Results as given in US20060057104A1, “Methods for stimulating tlr irf3 pathways for inducing anti-microbial, anti-inflammatory and anticancer responses” (THE Regents of the University of California Office of the …, priority 2002, published 2006).

Experiments:
MHV68 = MHV68 viral replication assay in wild-type and IFNAR−/− BMMs (M9 western blot); format: cell-based, Murine gammaherpesvirus 68; details: MOI 5, 48 h, co-treatment
Description: (B) For viral replication assays, BMMs were simultaneously stimulated with PAMPs (10, 1, or 0.1 ng/ml lipid A, or 1, 0.1, or 0.01 μg/ml poly(I:C)) and infected with MHV68 using a multiplicity of infection of five. Cell lysates were harvested at 48 h postinfection and subjected to Western blotting analysis using an Ab specific to the MHV68 protein M9. Actin levels were also assayed to ensure equal loading. The data represent two independent experiments.
A129 (IFNAR-1^−/−) (Muller, U., U. Steinhoff, L. F. L. Reis, S. Hemmi, J. Pavlovic, R. M. Zinkernagel, and M. Aguet. 1994. Functional role of type I and type II interferons in antiviral defense. Science 264:1918) and B6129SF2/J wild type control mice were obtained from B&K Universal Ltd. and Jackson Laboratories, respectively. C57/B6 mice were used for all experiments not involving the A129 mice (Jackson Laboratories). Specific TLR activation was achieved using F-583 (Rd mutant) E. coli lipid A for TLR4 (Sigma), CpG oligonucleotides for TLR9 (Invitrogen) and poly I:C for TLR3 (Pharmacia). […]
Using the MHV68 protein M9 as a readout for viral load, we show in FIG. 13B that the antiviral activity of macrophage cells infected with MHV68 was abolished in the absence of IFNAR despite co-treatment with either lipid A or poly I:C. […]

[1] = system: RAW 264.7 murine macrophage cell line; experiment: Apoptosis by TUNNEL assay in RAW 264.7 cells, laser scanner cytometry; format: cell-based; details: RAW 264.7, two 24 h intervals; 10 ng/ml Lipid A or 10 mg/ml poly I:C
Description: The RAW 264.7 murine macrophage cell line was treated for two 24 h intervals with media alone (control), 10 ng/ml Lipid A (Lipid A) or 10 mg/ml poly I:C. In addition, as a positive control for apoptosis, another set of cells was treated with 3% H2O2 for 2 hours. Following fixation and permeablization, apoptosis was measured by the TUNNEL assay using the Death kit (Roche). Apoptotic cells are visualized by an increase in fluorescence (FITC) and detected by laser scanner cytometry (LSC). […] The cell cycle is divided into G1 (red), S-phase (yellow) and G2/M (blue). Thus, TLR3/4 activation promotes apoptosis at all stages of the cell cycle (FIG. 16).

Substance	antiviral activity against MHV68 in the absence of IFNAR (MHV68)	increase in apoptotic cells [1] [fold]
poly I:C	abolished	100
lipid A	abolished	10
